This note sets out measurements from US9617225B2 (VIROSTATICS SRL, priority 2012, dated 2017).

SMILES strings stand for the structures. Where two headings read alike, the source gives them in different places. Where only a bound is given, the exact number is not on record here.

The target in the assay is human CDK9/CyclinT kinase complex (Homo sapiens (Human), UniProt P50750). Description: In Vitro CDK9/CyclinT Assay (IMAP fluorescent polarization). It counts as biochemical. How it is done: In Vitro CDK9/CyclinT Assay
Chain of human CDK9/CyclinT kinase complex (P50750 whole entry): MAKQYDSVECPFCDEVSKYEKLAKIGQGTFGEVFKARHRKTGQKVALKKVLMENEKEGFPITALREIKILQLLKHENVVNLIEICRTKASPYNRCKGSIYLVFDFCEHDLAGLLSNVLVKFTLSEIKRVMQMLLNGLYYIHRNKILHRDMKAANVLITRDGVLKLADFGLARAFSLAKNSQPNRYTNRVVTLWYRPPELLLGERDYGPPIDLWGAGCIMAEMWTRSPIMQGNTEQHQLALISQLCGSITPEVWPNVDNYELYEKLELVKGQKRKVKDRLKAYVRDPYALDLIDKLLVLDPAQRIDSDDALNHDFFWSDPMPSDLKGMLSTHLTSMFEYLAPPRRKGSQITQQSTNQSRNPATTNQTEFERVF
Chain of human CDK9/CyclinT kinase complex (O60563 whole entry partner): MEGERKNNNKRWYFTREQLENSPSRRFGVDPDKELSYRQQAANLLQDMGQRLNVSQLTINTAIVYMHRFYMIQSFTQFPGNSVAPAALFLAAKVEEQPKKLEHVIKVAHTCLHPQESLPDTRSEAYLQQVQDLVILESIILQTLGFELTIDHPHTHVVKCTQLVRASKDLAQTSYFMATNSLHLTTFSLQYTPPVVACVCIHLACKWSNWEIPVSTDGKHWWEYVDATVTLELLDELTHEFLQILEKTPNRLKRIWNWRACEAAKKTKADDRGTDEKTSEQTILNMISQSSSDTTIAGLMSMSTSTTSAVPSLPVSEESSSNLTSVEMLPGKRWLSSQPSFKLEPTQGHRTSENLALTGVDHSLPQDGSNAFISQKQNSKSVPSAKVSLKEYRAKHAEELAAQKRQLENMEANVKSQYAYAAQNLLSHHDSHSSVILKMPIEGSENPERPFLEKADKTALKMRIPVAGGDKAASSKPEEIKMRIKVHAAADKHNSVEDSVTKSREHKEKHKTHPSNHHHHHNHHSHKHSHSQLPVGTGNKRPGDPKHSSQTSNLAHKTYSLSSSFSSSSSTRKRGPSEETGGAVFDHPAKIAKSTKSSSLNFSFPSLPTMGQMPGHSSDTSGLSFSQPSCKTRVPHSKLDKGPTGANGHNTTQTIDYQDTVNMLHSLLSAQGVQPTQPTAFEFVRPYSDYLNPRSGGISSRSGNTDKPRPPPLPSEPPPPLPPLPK
The activity of the compounds described in the present invention can be determined by measuring the phosphorylation of a fluorescently-labeled peptide by human CDK9/CyclinT kinase complex by fluorescent polarization using a commercially available IMAP Screening Express Assay Kit (Molecular devices).
Test compounds were diluted in 100% DMSO to 5 mM stock concentration, then further dilutions were made in H2O or 100% DMSO to desirable concentrations. Each reaction consisted of 5 nM enzyme: CDK9/CyclinT (Proqinase cat#0371-0345-1), 400 nM TAMRA-Rbtide (synthetic 15-mer peptide derived from human retinoblastoma tumor suppressor protein labeled with TAMRA dye, Genecust Europe), 12 μM ATP (=Kmapp, Sigma-Aldrich) and kinase buffer: 20 mM MOPS pH 7 (Sigma-Aldrich), 1 mM DTT (Sigma-Aldrich), 10 mM MgCl2 (Sigma-Aldrich), 0.01% Tween 20 (Sigma-Aldrich).
For each reaction, 4 or 6 μl containing TAMRA-Rbtide, ATP and kianse buffer were combined with 2 μl diluted compound in H2O or 0.028 μl compound in 100% DMSO. The kinase reaction was started by the addition of 2 μl diluted enzyme. The reaction was allowed to run for 1 hour at room temperature. The reaction was stopped by adding 15 μl IMAP beads (1:400 beads in progressive (100% buffer A) 1× buffer).

The IC50 is the concentration at which inhibition is half-maximal. A high value points to lower potency. `COc1ccc(Nc2cc(-c3ccccc3OC)ncn2)cc1C(=O)NCCCN1CCN(C)CC1` [Example 47, 2-Methoxy-5-[6-(2-methoxy-phenyl)-pyrimidin-4-ylamino]-N-[3-(4-methyl-piperazin-1-yl)-propyl]-benzamide] displayed an IC50 below 1 µM.
In turn, `COc1ccc(Nc2cc(-c3ccccc3OC)ncn2)cc1C(=O)NCCO` [Example 48, N-(2-Hydroxy-ethyl)-2-methoxy-5-[6-(2-methoxy-phenyl)-pyrimidin-4-ylamino]-benzamide] showed an IC50 (Table 1) below 1 µM.
Consider `COc1ccc(Nc2cc(-c3ccccc3OC)ncn2)cc1NC(C)=O` [Example 50, N-{2-Methoxy-5-[6-(2-methoxy-phenyl)-pyrimidin-4-ylamino]-phenyl}-acetamide], for which the half-inhibitory concentration (IC50) was below 1 µM.
In turn, `COC(=O)Nc1cc(Nc2cc(-c3ccccc3OC)ncn2)ccc1OC` [Example 51, {2-Methoxy-5-[6-(2-methoxy-phenyl)-pyrimidin-4-ylamino]-phenyl}-carbamic acid methyl ester] yielded an IC50 (Table 1) below 1 µM.
Consider `CNC(=O)Nc1cc(Nc2cc(-c3ccccc3OC)ncn2)ccc1OC` [Example 52, 1-{2-Methoxy-5-[6-(2-methoxy-phenyl)-pyrimidin-4-ylamino]-phenyl}-3-methyl-urea], for which, for the setting “Table 1”, the concentration for half-maximal inhibition (IC50) was below 1 µM.
For the setting “Table 1”, `COc1ccc(Nc2cc(-c3ccccc3OC)ncn2)cc1NC(=O)C(C)(C)C` [Example 53, N-{2-Methoxy-5-[6-(2-methoxy-phenyl)-pyrimidin-4-ylamino]-phenyl}-2,2-dimethyl-propionamide] showed an IC50 below 1 µM.
With `COc1ccc(Nc2cc(-c3ccccc3OC)ncn2)cc1Nc1nc2ccccc2[nH]1` [Example 54, N^3-(1H-Benzoimidazol-2-yl)-4-methoxy-N^1-[6-(2-methoxy-phenyl)-pyrimidin-4-yl]-benzene-1,3-diamine], the IC50 (Table 1) was below 10 µM.
The same measure, in the same setting: as for `COc1ccc(Nc2cc(-c3ccccc3OC)ncn2)cc1NC=O` [Example 55, N-{2-Methoxy-5-[6-(2-methoxy-phenyl)-pyrimidin-4-ylamino]-phenyl}-formamide], the figure is below 0.1 µM; as for `COc1ccc(Nc2cc(-c3ccccc3OC)ncn2)cc1NC(N)=O` [Example 56, {2-Methoxy-5-[6-(2-methoxy-phenyl)-pyrimidin-4-ylamino]-phenyl}-urea], below 1 µM; as for `COc1ccccc1-c1cc(Nc2ccc([N+](=O)[O-])c(F)c2)ncn1` [Example 57, (3-Fluoro-4-nitro-phenyl)-[6-(2-methoxy-phenyl)-pyrimidin-4-yl]-amine], below 10 µM.
In turn, `COc1ccccc1-c1cc(Nc2ccc([N+](=O)[O-])c(OC)c2)ncn1` [Example 58, (3-Methoxy-4-nitro-phenyl)-[6-(2-methoxy-phenyl)-pyrimidin-4-yl]-amine] registered a half-inhibitory concentration (IC50) (Table 1) below 10 µM.
As for `COc1cc(Nc2cc(-c3ccccc3OC)ncn2)ccc1NS(C)(=O)=O` [Example 60, N-{2-Methoxy-4-[6-(2-methoxy-phenyl)-pyrimidin-4-ylamino]-phenyl}-methanesulfonamide], the IC50 (Table 1) is below 1 µM.
Take `CCOc1ccccc1-c1cc(Nc2ccc(OC)c([N+](=O)[O-])c2)ncn1` [Example 61, [6-(2-Ethoxy-phenyl)-pyrimidin-4-yl]-(4-methoxy-3-nitro-phenyl)-amine]: the IC50 (Table 1) is below 1 µM.
Compound `COc1cc(F)ccc1-c1cc(Nc2ccc(OC)c([N+](=O)[O-])c2)ncn1` [Example 63, [6-(4-Fluoro-2-methoxy-phenyl)-pyrimidin-4-yl]-(4-methoxy-3-nitro-phenyl)-amine] showed an IC50 (Table 1) below 1 µM.
`COc1ccc(-c2cc(Nc3ccc(OC)c([N+](=O)[O-])c3)ncn2)cc1` [Example 65, (4-Methoxy-3-nitro-phenyl)-[6-(4-methoxy-phenyl)-pyrimidin-4-yl]-amine] gave an IC50 above 10 µM.
For the compound `CCOc1cc(F)ccc1-c1cc(Nc2ccc(OC)c([N+](=O)[O-])c2)ncn1` [Example 72, [6-(2-Ethoxy-4-fluoro-phenyl)-pyrimidin-4-yl]-(4-methoxy-3-nitro-phenyl)-amine], the IC50 (Table 1) is below 1 µM.
